Assays:
[1] = octanol/water
physchem [2] = conditions: octanol/water, pH 6.5
clinical [3] = conditions: human, in vivo, po
[4] = octanol/water; remark: listed apart in the source
physchem [5] = experiment: physchem
physchem [6] = conditions: octanol/water, pH 6.5, logD
[7] = Oral bioavailability in human; format: ADME, organism-based; conditions: in vivo
[8] = octanol/water; remark: listed apart in the source
clinical [9] = conditions: human, in vivo, po; remark: listed apart in the source
[10] = octanol/water; remark: listed apart in the source
clinical [11] = conditions: human, in vivo, po; remark: listed apart in the source
[12] = human, in vivo, po
[13] = Partition coefficient (logD6.5); format: physicochemical; conditions: octanol/water, pH 6.5

SMILES	delta logD [1]	logD (physchem [2])	bioavailability (clinical [3])	pKa (physchem [5])	further results
CCOc1ccc2ccccc2c1C(=O)N[C@@H]1C(=O)N2[C@@H]1SC(C)(C)[C@@H]2C(=O)O [NAFCILLIN]	0.9	-0.84	49%		
CN1CCN(CC(=O)N2c3ccccc3C(=O)Nc3cccnc32)CC1 [PIRENZEPINE]	-0.83		49%	8.1	logD [4]: -1.51
CCCC(=O)Nc1ccc(OCC(O)CNC(C)C)c(C(C)=O)c1 (configuration not stated) [ACEBUTOLOL]			49%		
CC(C)NC[C@H](O)COc1ccc(O)cc1 [PRENALTEROL]	-0.89	-1.61	49%	9.2	
CC(CCc1ccccc1)NCC(O)c1ccc(O)c(C(N)=O)c1 (configuration not stated) [LABETALOL]	-0.9	0.35	49%	9.3	
O=C1C(O)=C([C@H]2CC[C@H](c3ccc(Cl)cc3)CC2)C(=O)c2ccccc21 [ATOVAQUONE]					logD (physchem [6]): 3.96; bioavailability [7]: 49%
CC(C)(C)NCC(O)c1ccc(O)c(CO)c1 (configuration not stated) [ALBUTEROL]	-0.9	-2.69	49%		
COc1cc(N)c(Cl)cc1C(=O)NC1CCN(CCCOc2ccc(F)cc2)CC1OC (configuration not stated) [CISAPRIDE]	-0.75	1.79	49%	7.7	
CCOC(=O)C1=C(C)NC(C)=C(C(=O)OC)C1c1cccc([N+](=O)[O-])c1 (configuration not stated) [NITRENDIPINE]					delta logD [8]: 0; bioavailability (clinical [9]; F): < 20%; logD [10]: 0.97
CC(C)(C)NCC(O)COc1cccc2c1CC(O)C(O)C2 (configuration not stated) [NADOLOL]	-0.9		49%	9.7	logD [4]: -2.46
CC(NCCc1ccc(O)cc1)C(O)c1ccc(O)cc1 (configuration not stated) [RITODRINE]	-0.89	-1	49%		
COc1ccc2c3c1O[C@H]1[C@@H](O)C=C[C@H]4[C@@H](C2)N(C)CC[C@@]341 [CODEINE]					delta logD [8]: -0.8; bioavailability (clinical [9]): 79%; logD [10]: -0.28
COc1ccccc1OCCNCC(O)COc1cccc2[nH]c3ccccc3c12 (configuration not stated) [CARVEDILOL]	-0.9	1.31	49%	9.3	
CCC(C)(C)NCC(O)COc1ccccc1C(=O)CCc1ccccc1 (configuration not stated) [DIPRAFENONE]	-0.89	0.59	49%	9.2	
OCCN1CCN(CCCN2c3ccccc3Sc3ccc(Cl)cc32)CC1 [PERPHENAZINE]	-0.77				bioavailability (clinical [11]): 79%; logD [4]: 2.88
O=C(NC1CCN(CCc2c[nH]c3ccccc23)CC1)c1ccccc1 [INDORAMIN]	-0.75	1.56	49%	7.7	
C=CCOc1ccccc1OCC(O)CNC(C)C (configuration not stated) [OXPRENOLOL]	-0.9		49%	9.3	logD ([4]; pH 6.5): -0.72
CN1CCC[C@H]1c1cccnc1 [NICOTINE]	-0.82	-0.34	49%		
NS(=O)(=O)c1cc2c(cc1Cl)N=CNS2(=O)=O [CHLOROTHIAZIDE]	0.57	-0.45	49%	6.7	
CN1CCC[C@@H]1CCO[C@](C)(c1ccccc1)c1ccc(Cl)cc1 [CLEMASTINE]	-0.89	1.65	49%	9.2	
CC(C)n1c(/C=C/C(O)CC(O)CC(=O)O)c(-c2ccc(F)cc2)c2ccccc21 (configuration not stated) [FLUVASTATIN]	0.9	1.42	49%	4.5	
CC[C@H]1[C@@H]2C[C@H]3[C@@H]4N(C)c5ccccc5[C@]45C[C@@H]([C@@H]2[C@H]5O)N3[C@@H]1O [AJMALINE]	-0.25	2.42	49%	6.5	
O=C(c1ccc(OCCN2CCCCC2)cc1)c1c(-c2ccc(O)cc2)sc2cc(O)ccc12 [RALOXIFENE]				9	delta logD [8]: -0.9; bioavailability (clinical [9]; F): < 20%; logD ([10]; pH 6.5): 1.08
Nc1ccn([C@H]2CC[C@@H](CO)O2)c(=O)n1 (stereo in doubt; 1) [ZALCITABINE]					F [12]: < 20%; logD [10]: 3.2
C[C@H](CS)C(=O)N1C[C@@H](Sc2ccccc2)C[C@H]1C(=O)O [ZOFENOPRILAT]	0.9	-0.64		3.7	bioavailability (clinical [11]): 79%
Cc1nnc2n1-c1sc(Br)cc1C(c1ccccc1Cl)=NC2 [BROTIZOLAM]	-0.14	2.63		6.2	bioavailability (clinical [11]): 79%
CN(Cc1cnc2nc(N)nc(N)c2n1)c1ccc(C(=O)N[C@@H](CCC(=O)O)C(=O)O)cc1 [METHOTREXATE]	0.9				bioavailability (clinical [11]): 79%; logD [4]: -4.55

SMILES	delta logD [1]	logD (physchem [2])	bioavailability (clinical [3])	pKa (physchem [5])	further results
COc1ccc(C(=O)Nc2ccccc2CCC2CCCCN2C)cc1 (configuration not stated) [ENCAINIDE]	-0.9	-0.34	49%	10.2	
OCCN1CCN(CCC=C2c3ccccc3Sc3ccc(C(F)(F)F)cc32)CC1	-0.83	2.88		8.1	bioavailability (clinical [11]): 79%
COCC(=O)O[C@]1(CCN(C)CCCc2nc3ccccc3[nH]2)CCc2cc(F)ccc2[C@@H]1C(C)C [MIBEFRADIL]	-0.9	1.25		9.3	bioavailability (clinical [11]): 79%
O=C(NCCN1CCOCC1)c1ccc(Cl)cc1 [MOCLOBEMIDE]	-0.15	1.26		6.2	bioavailability (clinical [11]): 79%
CN(C)CCC=C1c2ccccc2COc2ccccc21 [DOXEPIN]	-0.82	1.55	49%	8	
Nc1ccn([C@H]2CC[C@@H](CO)O2)c(=O)n1 (stereo in doubt; 232) [ZALCITABINE]					delta logD [8]: 0; F [12]: > 80%
O=C(O)CCCc1ccc(N(CCCl)CCCl)cc1 [CHLORAMBUCIL]					delta logD [8]: 0.82; bioavailability (clinical [9]): > 80%; logD [10]: 2.29
Fc1ccc([C@@H]2CCNC[C@H]2COc2ccc3c(c2)OCO3)cc1 [PAROXETINE]	-0.9	-1.96		11.2	bioavailability (clinical [11]): 79%
CC(C)(C)NC[C@H](O)COc1nsnc1N1CCOCC1 [TIMOLOL]	-0.9	-0.99		9.3	bioavailability (clinical [11]): 79%
CCC(=O)O[C@](Cc1ccccc1)(c1ccccc1)[C@H](C)CN(C)C [PROPOXYPHENE]	-0.89	2.2	49%		
Cc1onc(-c2ccccc2)c1C(=O)N[C@@H]1C(=O)N2[C@@H]1SC(C)(C)[C@@H]2C(=O)O [OXACILLIN]	0.9	-1.32	49%		
CO/C(O)=C1\C(C)=NC(C)=C(C(=O)OC(C)C)C1c1cccc2nonc12 (configuration not stated)	0				logD [13]: 1.72; bioavailability (clinical [9]; F): ≤ 20%
Cc1ncc2n1-c1ccc(Cl)cc1C(c1ccccc1F)=NC2 [MIDAZOLAM]	-0.14	1.37	49%	6.1	
CC(CN1c2ccccc2Sc2ccccc21)N(C)C (configuration not stated) [PROMETHAZINE]	-0.89	2.21	49%		
OCCN1CCN(CC/C=C2/c3ccccc3Sc3ccc(Cl)cc32)CC1 [ZUCLOPENTHIXOL]	-0.83	2.71		8.1	bioavailability (clinical [11]): 79%
CCOC(=O)Nc1ccc2c(c1)N(C(=O)CCN1CCOCC1)c1ccccc1S2 [MORICIZINE]	-0.21	2.73	49%	6.4	
COc1ccc([C@@H]2Sc3ccccc3N(CCN(C)C)C(=O)[C@@H]2OC(C)=O)cc1 [DILTIAZEM]	-0.75	1.47	49%		
CSc1ccc2c(c1)N(CCC1CCCCN1C)c1ccccc1S2 (configuration not stated) [THIORIDAZINE]	-0.9	2.9	49%		
CC(C)NCC(O)COc1ccc(CCOCC2CC2)cc1 (configuration not stated) [BETAXOLOL]				9.4	delta logD [8]: -0.9; bioavailability (clinical [9]; F): > 80%; logD ([10]; pH 6.5): -0.07
CN(C)CCCN1c2ccccc2CCc2ccccc21 [IMIPRAMINE]			49%		
CC(C)NCC(O)COc1cccc2ccccc12 (configuration not stated) [PROPRANOLOL]	-0.9		49%		
CNC(=C[N+](=O)[O-])NCCSCc1ccc(CN(C)C)o1 [RANITIDINE]					delta logD [8]: -0.84; bioavailability (clinical [9]; F): 79%; logD ([10]; pH 6.5): -1.44
Cc1onc(-c2c(Cl)cccc2Cl)c1C(=O)N[C@@H]1C(=O)N2[C@@H]1SC(C)(C)[C@@H]2C(=O)O [DICLOXACILLIN]	0.9	-0.79		2.8	bioavailability (clinical [11]): 79%
CC[C@@H](CO)NCCN[C@@H](CC)CO [ETHAMBUTOL]	-0.9			9.5	bioavailability (clinical [11]): 79%; logD [4]: -4.02
NC(N)=Nc1nc(CSCCC(N)=NS(N)(=O)=O)cs1 [FAMOTIDINE]	-0.52	-1.27	49%	7.1	
COc1ccc2[nH]c([S+]([O-])Cc3ncc(C)c(OC)c3C)nc2c1 (configuration not stated) [OMEPRAZOLE]	-0.02	2.21		5.2	bioavailability (clinical [11]): 79%

Source: ChEMBL document CHEMBL1133765, “QSAR model for drug human oral bioavailability” (J Med Chem, 2000)
